Results from patent US8815919B2, “Oxadiazole derivatives” (Merck Serono SA, priority 2009, dated 2014).
Where a name gives a salt, the structure may show the parent alone. Read-outs that look alike come from different tables or passages of the source.

How the values were obtained:
S1P3 = S1P3 (Homo sapiens, UniProt Q99500); test: Receptor binding assay, [33P]sphingosine 1-phosphate competition, S1P3 membranes, WGA SPA beads
Method in brief: (§1)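 Competition of [33P]S1P ([…]) on CHO cell membranes with WGA SPA beads in 50 mM HEPES pH 7.5, 5 mM MgCl2, 100 mM NaCl, 0.4% fatty acid-free BSA; 60 min at RT. Triplicates normalised to total binding and nonspecific binding (1000-fold excess unlabeled S1P).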

S1P1 [1] = biological target: T1, S1P1 (Homo sapiens, UniProt P21453); test: S1P1 internalization assay in S1P1-U2OS cells (S1P1-EGFP), cell imaging; assay type: cell-based; design: host or cells: U2OS (human bone osteosarcoma epithelial cells), CMV promoter, geneticin selection; settings: 1 hour incubation
Method in brief: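 U2OS cells stably expressing human S1P1-EGFP, plated overnight in 1% FCS medium, then serum-starved 2 h in 0.1% fatty-acid-free BSA before 1 h compound exposure at 37 °C. After PFA fixation and Hoechst staining, internalization imaged as EGFP spot count per nucleus.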
Target sequence in this assay (P21453 whole entry): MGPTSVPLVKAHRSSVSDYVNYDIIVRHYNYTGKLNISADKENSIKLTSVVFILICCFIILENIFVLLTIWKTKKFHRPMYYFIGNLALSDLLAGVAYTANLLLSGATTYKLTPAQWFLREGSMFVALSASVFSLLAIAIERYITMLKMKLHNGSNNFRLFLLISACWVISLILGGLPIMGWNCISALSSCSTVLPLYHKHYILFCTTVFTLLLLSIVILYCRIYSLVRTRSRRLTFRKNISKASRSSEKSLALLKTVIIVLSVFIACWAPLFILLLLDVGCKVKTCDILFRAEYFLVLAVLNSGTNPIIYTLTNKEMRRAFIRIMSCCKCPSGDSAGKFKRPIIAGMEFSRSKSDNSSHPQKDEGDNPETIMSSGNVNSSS

S1P1 [2] = biological target: T1, S1P1; test: Receptor binding assay, [33P]sphingosine 1-phosphate competition, S1P1 membranes, WGA SPA beads
Method in brief: as §1
Target sequence in this assay (P21453 whole entry, species assumed): as the sequence (P21453 whole entry) above

[3] = 384 well-plate, read-out: S1P3 binding Ki (M) (384 well-plate)
[4] = 384 well-plate, read-out: S1P1 binding Ki (M) (384 well-plate)
[5] = 96 well-plate, read-out: S1P1 binding Ki (M) (96 well-plate)

Sequence of S1P3 (Q99500 whole entry, species assumed): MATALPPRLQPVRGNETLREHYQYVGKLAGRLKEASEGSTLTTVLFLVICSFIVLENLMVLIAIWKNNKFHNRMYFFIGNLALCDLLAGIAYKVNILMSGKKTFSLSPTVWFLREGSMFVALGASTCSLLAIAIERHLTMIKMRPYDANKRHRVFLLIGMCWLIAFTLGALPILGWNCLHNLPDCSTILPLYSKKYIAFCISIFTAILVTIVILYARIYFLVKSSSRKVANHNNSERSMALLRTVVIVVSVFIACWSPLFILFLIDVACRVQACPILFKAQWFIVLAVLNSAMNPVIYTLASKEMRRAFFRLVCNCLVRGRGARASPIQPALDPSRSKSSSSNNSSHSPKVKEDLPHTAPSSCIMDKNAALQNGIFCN

Structure (SMILES)	Ki (S1P3; [3]) [M]	EC50 (S1P1 [1]) [nM]	Ki (S1P1 [2]; [4]) [M]	Ki (S1P1 [2]; [5]) [M]	Ki (S1P3; 96 well-plate, read-out: S1P3 binding Ki (M) (96 well-plate))
COCc1cc(-c2nc(-c3cccc(CN(CCC(=O)O)C(C)C)c3)no2)ccc1-c1ccccc1C [Example 108, N-isopropyl-N-(3-{5-[2-(methoxymethyl)-2′-methylbiphenyl-4-yl]-1,2,4-oxadiazol-3-yl}benzyl)-beta-alanine, hydrochloride salt]	1.1e-06	14	5.06e-10		
COCc1cc(-c2nc(-c3ccc(CN(C)CC(=O)O)cc3)no2)ccc1-c1ccccc1Cl [Example 118, N-(4-{5-[2′-chloro-2-(methoxymethyl)biphenyl-4-yl]-1,2,4-oxadiazol-3-yl}benzyl)-N-methylglycine, hydrochloride salt]	5.67e-07	9.94	1.1e-09		
COCc1cc(-c2nc(-c3ccc(CN(C)CC(=O)O)c(F)c3)no2)ccc1-c1ccccc1Cl [Example 119, N-(4-{5-[2′-chloro-2-(methoxymethyl)biphenyl-4-yl]-1,2,4-oxadiazol-3-yl}-2-fluorobenzyl)-N-methylglycine, hydrochloride salt]	3.83e-07	11.5	9.55e-10		
COCc1cc(-c2nc(-c3ccc(CN(C)CC(=O)O)c(F)c3)no2)ccc1-c1cccc(F)c1Cl [Example 121, N-(4-{5-[2′-chloro-3′-fluoro-2-(methoxymethyl)biphenyl-4-yl]-1,2,4-oxadiazol-3-yl}-2-fluorobenzyl)-N-methylglycine, hydrochloride salt]	5.26e-07	6.56	1.54e-09		
COCc1cc(-c2nc(-c3ccc(CN(C)CC(=O)O)cc3)no2)ccc1-c1cccc(F)c1Cl [Example 122, N-(4-{5-[2′-chloro-3′-fluoro-2-(methoxymethyl)biphenyl-4-yl]-1,2,4-oxadiazol-3-yl}benzyl)-N-methylglycine, hydrochloride salt]	2.5e-06	5.1	1.31e-09		
CCc1cc(-c2noc(-c3ccc(-c4ccccc4C)c(COC)c3)n2)ccc1CN(C)CC(=O)O [Example 124, 2-((2-ethyl-4-(5-(2-(methoxymethyl)-2′-methylbiphenyl-4-yl)-1,2,4-oxadiazol-3-yl)benzyl)(methyl)amino)acetic acid]	4.1e-06	23.2	1.98e-09		
COCc1cc(-c2nc(-c3ccc(CN(C)CC(=O)O)c(C)c3)no2)ccc1-c1ccccc1C [Example 125, 2-((4-(5-(2-(methoxymethyl)-2′-methylbiphenyl-4-yl)-1,2,4-oxadiazol-3-yl)-2-methylbenzyl)(methyl)amino)acetic acid]	1.92e-06	7.65	2.31e-09		
COCc1cc(-c2nc(-c3cc(CN(C)CC(=O)O)cc(F)c3F)no2)ccc1-c1ccccc1C [Example 126, N-(3,4-difluoro-5-{5-[2-(methoxymethyl)-2′-methylbiphenyl-4-yl]-1,2,4-oxadiazol-3-yl}benzyl)-N-methylglycine, hydrochloride salt]	6.55e-07	47	2.88e-09		
COCc1cc(-c2nc(-c3ccc(CN(C)CC(=O)O)cc3)no2)ccc1-c1cc(F)ccc1C [Example 127, N-(4-{5-[5′-fluoro-2-(methoxymethyl)-2′-methylbiphenyl-4-yl]-1,2,4-oxadiazol-3-yl}benzyl)-N-methylglycine, hydrochloride salt]	7.6e-07	8.68	1.12e-09		
COCc1cc(-c2nc(-c3ccc(CN(C)CC(=O)O)c(Cl)c3)no2)ccc1-c1ccccc1C [Example 128, 2-((4-(5-(2-(methoxymethyl)-2′-methylbiphenyl-4-yl)-1,2,4-oxadiazol-3-yl)-2-chlorobenzyl)(methyl)amino)acetic acid]	5.66e-07	13.3	1.45e-09		
Cc1ccccc1-c1ccc(-c2nc(-c3ccc(CN(C)CC(=O)O)cc3)no2)cc1C [Example 130, N-{4-[5-(2,2′-dimethylbiphenyl-4-yl)-1,2,4-oxadiazol-3-yl]benzyl}-N-methylglycine, hydrochloride salt]	5.38e-06	23.3	2.53e-09	8.34e-10	
Cc1ccccc1-c1ccc(-c2nc(-c3ccc(CN(C)CC(=O)O)c(F)c3)no2)cc1C [Example 131, N-{4-[5-(2,2′-dimethylbiphenyl-4-yl)-1,2,4-oxadiazol-3-yl]-2-fluorobenzyl}-N-methylglycine, hydrochloride salt]	1.98e-06	16.2	1.68e-09		
Cc1ccccc1-c1ccc(-c2nc(-c3cccc(CN(C)CC(=O)O)c3)no2)cc1C [Example 132, N-{3-[5-(2,2′-dimethylbiphenyl-4-yl)-1,2,4-oxadiazol-3-yl]benzyl}-N-methylglycine, hydrochloride salt]	1.64e-06	235	3.65e-09		
Cc1ccccc1-c1ccc(-c2nc(-c3cc(F)cc(CN(C)CC(=O)O)c3)no2)cc1C [Example 133, N-{3-[5-(2,2′-dimethylbiphenyl-4-yl)-1,2,4-oxadiazol-3-yl]-5-fluorobenzyl}-N-methylglycine, hydrochloride salt]	4.72e-07	42.2	2.81e-09		
COC(C)c1cc(-c2nc(-c3ccc(CN(C)CC(=O)O)cc3)no2)ccc1-c1ccccc1C (stereo not drawn) [Example 140, N-(4-{5-[2-(1-methoxyethyl)-2′-methylbiphenyl-4-yl]-1,2,4-oxadiazol-3-yl}benzyl)-N-methylglycine, hydrochloride salt]	3.89e-07	3.75	9.81e-10	1.89e-10	1.64e-07
Cc1ccccc1-c1ccc(-c2nc(-c3ccc(CNCCCC(=O)O)cc3)no2)cc1C(F)(F)F [Example 142, 4-[(4-{5-[2′-methyl-2-(trifluoromethyl)biphenyl-4-yl]-1,2,4-oxadiazol-3-yl}benzyl)amino]butanoic acid]	3.73e-07	0.802	5.49e-10		
COCc1cc(-c2nc(-c3ccc(CN(C)CC(=O)O)cc3C(F)(F)F)no2)ccc1-c1ccccc1C [Example 143, 2-((4-(5-(2-(methoxymethyl)-2′-methylbiphenyl-4-yl)-1,2,4-oxadiazol-3-yl)-3-(trifluoromethyl)benzyl)(methyl)amino)acetic acid]	1.83e-06	85.5	2.32e-09		
COCc1cc(-c2nc(-c3ccc(CN(C)CC(=O)O)cc3Cl)no2)ccc1-c1ccccc1C [Example 144, 2-((4-(5-(2-(methoxymethyl)-2′-methylbiphenyl-4-yl)-1,2,4-oxadiazol-3-yl)-3-chlorobenzyl)(methyl)amino)acetic acid]	3.55e-07	25.7	1.73e-09		
COCc1cc(-c2nc(-c3ccc(CN(C)CC(=O)O)cc3F)no2)ccc1-c1ccccc1C [Example 146, 2-((3-fluoro-4-(5-(2-(methoxymethyl)-2′-methylbiphenyl-4-yl)-1,2,4-oxadiazol-3-yl)benzyl)(methyl)amino)acetic acid, hydrochloride salt]	3.68e-07	33.6	9.36e-10		
COCc1cc(-c2nc(-c3cc(F)c(CNCC(=O)O)c(F)c3)no2)ccc1-c1ccccc1C [Example 147, 2-(2,6-difluoro-4-(5-(2-(methoxymethyl)-2′-methylbiphenyl-4-yl)-1,2,4-oxadiazol-3-yl)benzylamino)acetic acid, hydrochloride salt]	1.35e-07	1.54	6.95e-10		
COCc1cc(-c2nc(-c3ccc(CN(C)CC(=O)O)c(F)c3F)no2)ccc1-c1ccccc1C [Example 149, 2-((2,3-difluoro-4-(5-(2-(methoxymethyl)-2′-methylbiphenyl-4-yl)-1,2,4-oxadiazol-3-yl)benzyl)(methyl)amino)acetic acid, hydrochloride salt]	1.48e-07	9.54	1.26e-09		
COCc1cc(-c2nc(-c3cc(F)c(CN(C)CC(=O)O)c(F)c3)no2)ccc1-c1ccccc1C [Example 151, 2-((2,6-difluoro-4-(5-(2-(methoxymethyl)-2′-methylbiphenyl-4-yl)-1,2,4-oxadiazol-3-yl)benzyl)(methyl)amino)acetic acid, hydrochloride salt]	3.9e-07	21.6	3.53e-09		
